Reference: ChEMBL document CHEMBL1153680, “Structural influences of styryl-based inhibitors on epidermal growth factor receptor and p56lck tyrosine-specific protein kinases” (Bioorg Med Chem Lett, 1991)

Legend:
[1] = target: Epidermal growth factor receptor (Homo sapiens, UniProt P00533); assay: Inhibition of Epidermal growth factor receptor
[2] = target: Tyrosine-protein kinase Lck (Homo sapiens, UniProt P06239); assay: Inhibition of p56 lck tyrosine kinase
Sequence of Tyrosine-protein kinase Lck (P06239 whole entry): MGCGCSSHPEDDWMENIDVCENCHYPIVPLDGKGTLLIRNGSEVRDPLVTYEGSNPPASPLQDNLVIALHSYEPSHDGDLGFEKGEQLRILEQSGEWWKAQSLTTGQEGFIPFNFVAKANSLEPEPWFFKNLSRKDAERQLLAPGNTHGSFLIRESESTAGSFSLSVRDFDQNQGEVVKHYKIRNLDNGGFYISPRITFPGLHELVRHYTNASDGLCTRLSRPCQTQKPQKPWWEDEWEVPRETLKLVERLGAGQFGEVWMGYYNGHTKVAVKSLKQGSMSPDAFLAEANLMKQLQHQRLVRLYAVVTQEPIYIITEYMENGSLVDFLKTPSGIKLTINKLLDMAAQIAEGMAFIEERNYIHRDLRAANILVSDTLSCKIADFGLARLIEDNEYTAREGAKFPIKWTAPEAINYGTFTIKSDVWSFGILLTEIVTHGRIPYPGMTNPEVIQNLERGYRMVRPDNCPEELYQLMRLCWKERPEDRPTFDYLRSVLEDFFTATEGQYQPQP

Sequence of Epidermal growth factor receptor (P00533 whole entry): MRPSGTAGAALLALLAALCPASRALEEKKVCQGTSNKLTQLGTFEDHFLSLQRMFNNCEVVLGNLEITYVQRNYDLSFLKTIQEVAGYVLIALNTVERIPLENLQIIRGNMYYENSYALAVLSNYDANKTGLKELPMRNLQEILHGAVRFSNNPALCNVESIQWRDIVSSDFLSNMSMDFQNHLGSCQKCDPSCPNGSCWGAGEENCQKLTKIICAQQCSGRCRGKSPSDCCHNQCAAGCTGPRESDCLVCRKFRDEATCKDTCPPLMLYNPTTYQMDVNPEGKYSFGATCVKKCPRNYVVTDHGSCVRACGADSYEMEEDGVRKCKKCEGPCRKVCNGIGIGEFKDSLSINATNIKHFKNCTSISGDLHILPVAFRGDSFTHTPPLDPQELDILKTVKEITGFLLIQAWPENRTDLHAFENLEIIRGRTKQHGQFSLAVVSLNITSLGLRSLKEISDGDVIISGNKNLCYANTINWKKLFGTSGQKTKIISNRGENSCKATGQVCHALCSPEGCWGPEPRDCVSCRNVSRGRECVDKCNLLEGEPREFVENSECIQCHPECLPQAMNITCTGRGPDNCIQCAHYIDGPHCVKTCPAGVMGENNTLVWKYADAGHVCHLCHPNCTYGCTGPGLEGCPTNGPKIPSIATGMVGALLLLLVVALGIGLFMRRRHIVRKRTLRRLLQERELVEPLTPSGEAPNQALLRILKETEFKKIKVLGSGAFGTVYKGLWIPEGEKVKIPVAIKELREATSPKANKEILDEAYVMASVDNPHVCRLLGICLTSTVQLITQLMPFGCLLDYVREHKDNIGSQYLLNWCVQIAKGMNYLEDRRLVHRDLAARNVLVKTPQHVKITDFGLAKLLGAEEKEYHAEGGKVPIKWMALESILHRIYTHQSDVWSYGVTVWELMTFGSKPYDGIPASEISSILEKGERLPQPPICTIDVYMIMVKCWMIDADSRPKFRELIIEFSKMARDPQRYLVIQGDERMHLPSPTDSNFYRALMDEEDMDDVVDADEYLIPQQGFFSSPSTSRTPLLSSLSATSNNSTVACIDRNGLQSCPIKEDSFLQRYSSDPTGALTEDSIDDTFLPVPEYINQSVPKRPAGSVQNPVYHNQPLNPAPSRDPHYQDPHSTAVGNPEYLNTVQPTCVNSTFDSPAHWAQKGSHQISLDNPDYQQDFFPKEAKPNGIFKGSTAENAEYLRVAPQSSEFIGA

SMILES	IC50 [1]	IC50 [2]
O=CN/C=C/c1cc(O)ccc1O [ERBSTATIN]	3 µM	
O=CN/C=C/c1ccc(O)c(O)c1	7 µM	
N#C/C(=C\c1ccc(O)c(O)c1)C(N)=O	4 µM	7 µM
N#C/C(=C\c1cc(O)ccc1O)C(N)=O	10 µM	100 µM
